Test results published in patent publication US20040224907A1, “Compositions and methods for reversal of drug resistance” (priority 2001, published 2004).

Assays:
Pgp [1] = assay: Western blotting of Pgp protein levels in BE(2)-C cells (antibody C219); format: cell-based; settings: 10 μM (FIG. 3)
Method: FIG. 3. depicts Western Blot showing time-dependent reduction of Pgp expression in BE(2)—C cells following 10 μM (+)pentazocine treatment.
(§1) Protein levels were monitored by Western blotting, using monoclonal antibodies specific to Pgp (e.g., C219).

Pgp [2] = assay: Western blotting of Pgp protein levels in ADX cells (antibody C219); format: cell-based, Chinese hamster; settings: 10 μM (FIG. 4)
From the text: as §1

Pgp mRNA = assay: RT-PCR with 32P-ATP of Pgp mRNA levels in BE(2)-C neuroblastoma cell line; format: cell-based; design: reduction in Pgp mRNA levels, dose dependence: dose or concentration left out as unconfirmed; settings: BE(2)-C cells
Method: (§2) RT-PCR was performed and [^32P]ATP was incorporated into the PCR reaction. Radioactivity was measured following gel separation of PCR product.
as §2
Tests were performed in a BE(2)—C neuroblastoma cell line. This cell line was used to test the ability of (+)pentazocine to reduce levels of Pgp mRNA and corresponding protein expression in a dose-dependent manner. Pgp levels were tested at the mRNA level by reverse-transcription polymerase chain reaction (RT-PCR) in the presence of ^32P-ATP. Incorporation of the radiolabeled nucleotide was measured following electrophoresis of the PCR product.

mdr-1 gene = settings: human neuroblastoma cells; cited from earlier work

| Compound | time of maximal decrease of Pgp protein levels (Pgp [1]) | time of maximal decrease of Pgp protein levels (Pgp [2]) | decrease in Pgp mRNA (Pgp mRNA; 1 μM) | time of maximal reduction in Pgp mRNA levels post-treatment (Pgp mRNA; 10 μM (FIG. 1)) | reduction in Pgp mRNA levels, dose dependence (Pgp mRNA; concentrations (FIG. 2)) | effect on expression of the mdr-1 gene (mdr-1 gene) |
| --- | --- | --- | --- | --- | --- | --- |
| CC(C)=CCN1CCC2(C)c3cc(O)ccc3CC1C2C (single isomer, unassigned; (+)) [(+)pentazocine] | 12 to 18 h | 12 to 18 h | two-fold decrease | 12 to 18 h | dose-dependent |  |
| Br.Br.CN(CCc1ccc(Cl)c(Cl)c1)[C@H]1CCCC[C@H]1N1CCCC1 [BD 737] |  |  |  |  |  | no significant effect |
